# Test results from patent publication US11746116B2, “Antibiotic resistance breakers” (KING'S COLLEGE LONDON, priority 2017, dated 2023).
# Key:
# [1] = system: VRE12204; assay: MIC, microdilution broth method; format: cell-based, Enterococcus faecium; details: ESKAPE panel, Gram-positive; in µg/mL
# [2] = system: extended bacterial panel; assay: MIC against an extended bacterial panel (Table 15); format: cell-based
structure (smiles),measurement,setting,value
"Cc1cc(C)nc(N[C@@H]2CCN(c3c(F)cc4c(=O)c(C(=O)O)cn5c4c3OC[C@@H]5C)C2)n1 [KSN-BL7, (S)-10-((R)-3-((4,6-dimethylpyrimidin-2-yl)amino)pyrrolidin-1-yl)-9-fluoro-3-methyl-7-oxo-2,3-dihydro-7H-[1,4]oxazino[2,3,4-ij]quinoline-6-carboxylic acid]","MIC, VRE12204",[1],1
same,MIC,"[2]; Enterococcus faecalis, ATCC29212, Enterococcus faecalis ATCC 29212",0.25 µg/mL
same,MIC,"[2]; Enterococcus faecalis, ATCC51299, Enterococcus faecalis ATCC 51299, VanB",0.125 µg/mL
same,MIC,"[2]; Enterococcus faecalis, ATCC51575, Enterococcus faecalis ATCC 51575, VanB",0.25 µg/mL
same,MIC,"[2]; Enterococcus faecalis, ATCC700802, Enterococcus faecalis ATCC 700802, VanB",0.125 µg/mL
same,MIC,"[2]; Enterococcus faecalis, CCUG47775, Enterococcus faecalis CCUG 47775, Van A",0.5 µg/mL
same,MIC,"[2]; Enterococcus faecium, CCUG59167, Enterococcus faecium TUH44-29, CCUG 59167, Van A",1 µg/mL
same,MIC,"[2]; Enterococcus gallinarum, ATCC 49608 / GALLINARUM, Enterococcus gallinarum ATCC 49608, VanC",0.25 µg/mL
same,MIC,"[2]; Staphylococcus aureus, ATCC10390, Staphylococcus aureus ATCC 10390",≤ 0.0312 µg/mL
same,MIC,"[2]; Staphylococcus aureus, ATCC 13709 / MRSA, Staphylococcus aureus ATCC 13709, MRSA",≤ 0.0312 µg/mL
same,MIC,"[2]; Staphylococcus aureus, ATCC19636, Staphylococcus aureus Smith, ATCC 19636",≤ 0.0312 µg/mL
same,MIC,"[2]; Staphylococcus aureus, ATCC27660, Staphylococcus aureus ATCC 27660",≤ 0.0312 µg/mL
same,MIC,"[2]; Staphylococcus aureus, ATCC29213, Staphylococcus aureus ATCC 29213",≤ 0.0312 µg/mL
same,MIC,"[2]; Staphylococcus aureus, ATCC29213, Staphylococcus aureus ATCC 29213 with 50% human serum",1 µg/mL
same,MIC,"[2]; Staphylococcus aureus, ATCC 33591 / MRSA, Staphylococcus aureus ATCC 33591, MRSA",≤ 0.0312 µg/mL
same,MIC,"[2]; Staphylococcus aureus, ATCC 33592 / MRSA, Staphylococcus aureus ATCC 33592, MRSA",≤ 0.0312 µg/mL
same,MIC,"[2]; Staphylococcus aureus, ATCC33594, Staphylococcus aureus ATCC 33594",≤ 0.0312 µg/mL
same,MIC,"[2]; Staphylococcus aureus, ATCC49230, Staphylococcus aureus ATCC 49230",≤ 0.0312 µg/mL
same,MIC,"[2]; Staphylococcus aureus, ATCC 700699 / MRSA / VISA, Staphylococcus aureus Mu50, ATCC 700699, MRSA/VISA",2 µg/mL
same,MIC,"[2]; Staphylococcus aureus, BAA-1556 / MRSA / USA300, Staphylococcus aureus FPR3757, BAA-1556, USA300 MRSA",0.5 µg/mL
same,MIC,"[2]; Staphylococcus aureus, BAA-1707 / MRSA / USA400, Staphylococcus aureus MW2, BAA-1707, USA400 MRSA",≤ 0.0312 µg/mL
same,MIC,"[2]; Staphylococcus aureus, BAA-1717 / MRSA / USA300, Staphylococcus aureus TCH1516, BAA-1717, USA300 MRSA",≤ 0.0312 µg/mL
same,MIC,"[2]; Staphylococcus aureus, MRSA / NRS 3 / VISA, Staphylococcus aureus NRS3, MRSA/VISA",0.5 µg/mL
same,MIC,"[2]; Staphylococcus aureus, MRSA / NRS 17 / VISA, Staphylococcus aureus NRS17, MRSA/VISA",1 µg/mL
same,MIC,"[2]; Staphylococcus aureus, MRSA / NRS 22 / USA600 / VISA, Staphylococcus aureus NRS22, USA600 MRSA/VISA",4 µg/mL
same,MIC,"[2]; Staphylococcus aureus, MRSA / NRS 56 / VISA, Staphylococcus aureus NRS56, MRSA/VISA",1 µg/mL
same,MIC,"[2]; Staphylococcus aureus, MRSA / NRS 71, Staphylococcus aureus NRS71, MRSA",1 µg/mL
same,MIC,"[2]; Staphylococcus aureus, MRSA / NRS 100, Staphylococcus aureus COL, NRS100, MRSA",≤ 0.0312 µg/mL
same,MIC,"[2]; Staphylococcus aureus, MRSA / NRS 119, Staphylococcus aureus NRS119, MRSA LZD-NS",1 µg/mL
same,MIC,"[2]; Staphylococcus aureus, MRSA / NRS 123 / USA400, Staphylococcus aureus NRS123, USA400 MRSA",≤ 0.0312 µg/mL
same,MIC,"[2]; Staphylococcus aureus, MRSA / NRS 127, Staphylococcus aureus NRS127, MRSA LZD-NS",4 µg/mL
same,MIC,"[2]; Staphylococcus aureus, MRSA / NRS 269, Staphylococcus aureus NRS269, MRSA TGC-NS",2 µg/mL
same,MIC,"[2]; Staphylococcus aureus, MRSA / NRS 271, Staphylococcus aureus E-MRSA 15, NRS271, MRSA LZD-NS",0.5 µg/mL
same,MIC,"[2]; Staphylococcus aureus, MRSA / NRS 382 / USA100, Staphylococcus aureus NRS382, USA100 MRSA",0.5 µg/mL
same,MIC,"[2]; Staphylococcus aureus, MRSA / NRS 383 / USA200, Staphylococcus aureus NRS383, USA200 MRSA TIG-NS",1 µg/mL
same,MIC,"[2]; Staphylococcus aureus, MRSA / NRS 384 / USA300, Staphylococcus aureus NRS384, USA300 MRSA",≤ 0.0312 µg/mL
same,MIC,"[2]; Staphylococcus aureus, MRSA / NRS 385 / USA500, Staphylococcus aureus NRS385, USA500 MRSA",0.5 µg/mL
same,MIC,"[2]; Staphylococcus aureus, MRSA / NRS 386 / USA700, Staphylococcus aureus NRS386, USA700 MRSA",0.25 µg/mL
same,MIC,"[2]; Staphylococcus aureus, MRSA / NRS 387 / USA800, Staphylococcus aureus NRS387, USA800 MRSA",≤ 0.0312 µg/mL
same,MIC,"[2]; Staphylococcus aureus, MRSA / NRS 402 / VISA, Staphylococcus aureus NRS402, MRSA/VISA DAP-NS",1 µg/mL
same,MIC,"[2]; Staphylococcus aureus, MRSA / NRS 483, Staphylococcus aureus NRS483, USA1000 MRSA",≤ 0.0312 µg/mL
same,MIC,"[2]; Staphylococcus aureus, MRSA / NRS 484, Staphylococcus aureus NRS484, USA1100 MRSA",≤ 0.0312 µg/mL
same,MIC,"[2]; Staphylococcus aureus, MRSA / VISA, Staphylococcus aureus FDA-CDC AR-BANK# 0215",16 µg/mL
same,MIC,"[2]; Staphylococcus aureus, MRSA / VISA, Staphylococcus aureus FDA-CDC AR-BANK# 0216",0.5 µg/mL
same,MIC,"[2]; Staphylococcus aureus, MRSA / VISA, Staphylococcus aureus FDA-CDC AR-BANK# 0217",1 µg/mL
same,MIC,"[2]; Staphylococcus aureus, MRSA / VISA, Staphylococcus aureus FDA-CDC AR-BANK# 0218, MRSA/VISA Mupirocin-R",1 µg/mL
same,MIC,"[2]; Staphylococcus aureus, MRSA / VISA, Staphylococcus aureus FDA-CDC AR-BANK# 0219",4 µg/mL
same,MIC,"[2]; Staphylococcus aureus, MRSA / VISA, Staphylococcus aureus FDA-CDC AR-BANK# 0220",1 µg/mL
same,MIC,"[2]; Staphylococcus aureus, MRSA / VISA, Staphylococcus aureus FDA-CDC AR-BANK# 0221",0.5 µg/mL
same,MIC,"[2]; Staphylococcus aureus, MRSA / VISA, Staphylococcus aureus FDA-CDC AR-BANK# 0223",1 µg/mL
same,MIC,"[2]; Staphylococcus aureus, MRSA / VISA, Staphylococcus aureus FDA-CDC AR-BANK# 0224, MRSA/VISA Mupirocin-R",1 µg/mL
same,MIC,"[2]; Staphylococcus aureus, MRSA / VISA, Staphylococcus aureus FDA-CDC AR-BANK# 0225",1 µg/mL
same,MIC,"[2]; Staphylococcus aureus, MRSA / VISA, Staphylococcus aureus FDA-CDC AR-BANK# 0226",≤ 0.0312 µg/mL
same,MIC,"[2]; Staphylococcus aureus, MRSA / VISA, Staphylococcus aureus FDA-CDC AR-BANK# 0227",1 µg/mL
same,MIC,"[2]; Staphylococcus aureus, MRSA / VISA, Staphylococcus aureus FDA-CDC AR-BANK# 0228, MRSA/VISA Mupirocin-R",8 µg/mL
same,MIC,"[2]; Staphylococcus aureus, MRSA / VRSA, Staphylococcus aureus VRS1, VanA MRSA/VRSA",1 µg/mL
same,MIC,"[2]; Staphylococcus aureus, MRSA / VRSA, Staphylococcus aureus VRS2, VanA MRSA/VRSA",0.5 µg/mL
same,MIC,"[2]; Staphylococcus aureus, MRSA / VRSA, Staphylococcus aureus VRS3a, VanA MRSA/VRSA",0.5 µg/mL
same,MIC,"[2]; Staphylococcus aureus, MRSA / VRSA, Staphylococcus aureus VRS11b, VanA MRSA/VRSA",2 µg/mL
same,MIC,"[2]; Staphylococcus aureus, MRSA, Staphylococcus aureus ECL 2963621, MRSA DAP-NS",0.25 µg/mL
same,MIC,"[2]; Staphylococcus aureus, MRSA, Staphylococcus aureus ECL 2963666, MRSA DAP-NS",1 µg/mL
same,MIC,"[2]; Staphylococcus aureus, MRSA, Staphylococcus aureus ECL 2963667, MRSA DAP-NS",1 µg/mL
same,MIC,"[2]; Staphylococcus aureus, MRSA, Staphylococcus aureus ECL 2963743, MRSA DAP-NS",0.5 µg/mL
same,MIC,"[2]; Staphylococcus aureus, MRSA, Staphylococcus aureus R136",0.5 µg/mL
same,MIC,"[2]; Staphylococcus aureus, NRS 12 / VISA, Staphylococcus aureus NRS12, VISA",0.0625 µg/mL
same,MIC,"[2]; Staphylococcus aureus, NRS72, Staphylococcus aureus Sanger-476, NRS72",≤ 0.0312 µg/mL
same,MIC,"[2]; Staphylococcus aureus, NRS157, Staphylococcus aureus NRS157",≤ 0.0312 µg/mL
same,MIC,"[2]; Staphylococcus aureus, Staphylococcus aureus 6538P",≤ 0.0312 µg/mL
same,MIC,"[2]; Staphylococcus aureus, VISA, Staphylococcus aureus FDA-CDC AR-BANK# 0222",≤ 0.0312 µg/mL
same,MIC,"[2]; Staphylococcus aureus, VRSA, Staphylococcus aureus ECL 2963646",0.5 µg/mL
same,MIC,"[2]; Staphylococcus epidermidis, ATCC12228, Staphylococcus epidermidis ATCC 12228",≤ 0.0312 µg/mL
same,MIC,"[2]; Staphylococcus epidermidis, ATCC51625, Staphylococcus epidermidis CCF 15990, ATCC 51625",≤ 0.0312 µg/mL
same,MIC,"[2]; Staphylococcus epidermidis, NRS7, Staphylococcus epidermidis NRS7, VISE",0.5 µg/mL
same,MIC,"[2]; Staphylococcus epidermidis, NRS8, Staphylococcus epidermidis NRS8, VISE",1 µg/mL
same,MIC,"[2]; Staphylococcus epidermidis, NRS60, Staphylococcus epidermidis NRS60, VISE",0.0625 µg/mL
same,MIC,"[2]; Staphylococcus epidermidis, NRS101, Staphylococcus epidermidis NRS101",≤ 0.0312 µg/mL
same,MIC,"[2]; Staphylococcus haemolyticus, ATCC29970, Staphylococcus haemolyticus ATCC 29970",≤ 0.0312 µg/mL
same,MIC,"[2]; Staphylococcus intermedius, ATCC29663, Staphylococcus intermedius ATCC 29663",≤ 0.0312 µg/mL
same,MIC,"[2]; Staphylococcus saprophyticus, ATCC15305, Staphylococcus saprophyticus ATCC 15305",0.0625 µg/mL
same,MIC,[2]; Strepotococcus pyogenes ATCC 14289,0.125 µg/mL
same,MIC,[2]; Strepotococcus pyogenes ATCC 19615,0.125 µg/mL
same,MIC,"[2]; Streptococcus agalactiae, ATCC12386, Streptococcus agalactiae ATCC 12386",0.25 µg/mL
same,MIC,"[2]; Streptococcus mutans, ATCC25175, Streptococcus mutans ATCC 25175",≤ 0.0312 µg/mL
same,MIC,"[2]; Streptococcus oralis, ATCC9811, Streptococcus oralis ATCC 9811",0.25 µg/mL
same,MIC,"[2]; Streptococcus pneumoniae, ATCC6301, Streptococcus pneumoniae ATCC 6301",0.125 µg/mL
same,MIC,"[2]; Streptococcus pneumoniae, ATCC49619, Streptococcus pneumoniae ATCC 49619",0.125 µg/mL
same,MIC,"[2]; Streptococcus pneumoniae, ATCC51916, Streptococcus pneumoniae Tenessee 23F, ATCC 51916, MDR",0.125 µg/mL
same,MIC,"[2]; Streptococcus pneumoniae, ATCC700669, Streptococcus pneumoniae SP264, ATCC 700669, ST 23F",0.0625 µg/mL
same,MIC,"[2]; Streptococcus pneumoniae, ATCC700673, Streptococcus pneumoniae Hungary 19A, ATCC 700673, MDR",0.0625 µg/mL
same,MIC,"[2]; Streptococcus pneumoniae, ATCC700675, Streptococcus pneumoniae S. Africa 6B-8, ATCC 700675",0.0625 µg/mL
same,MIC,"[2]; Streptococcus pneumoniae, ATCC700676, Streptococcus pneumonia England ST14-9 ATCC 700676, ERY-R",0.125 µg/mL
same,MIC,"[2]; Streptococcus pneumoniae, ATCC 700677 / PRSP, Streptococcus pneumoniae CSR 14-10, ATCC 700677, PRSP",0.0625 µg/mL
same,MIC,"[2]; Streptococcus pneumoniae, PRSP, Streptococcus pneumoniae TM532",0.0625 µg/mL
same,MIC,"[2]; Streptococcus salivarius, ATCC13419, Streptococcus salivarius ATCC 13419",0.25 µg/mL
same,MIC,"[2]; Streptococcus sanguinis, ATCC10556, Streptococcus sanguinis ATCC 10556",0.25 µg/mL
